Reference: patent US20240342235A1, “COMPOSITION FOR TREATING INFLAMMATORY BOWEL DISEASE, COMPRISING COMBINED EXTRACT OF ISATIDIS FOLIUM AND JUGLANS MANDSHURICA” (MTHERA PHARMA CO., LTD., priority 2021, published 2024)

Assays:
Type in all cases: in vivo, C57BL/6N male mice
myeloperoxidase (MPO) = test: Myeloperoxidase (MPO) activity in large intestine tissue, Mouse MPO ELISA kit (Example 6); details: 100 mg/kg oral for 7 days, 2.5% DSS for 5 days
Description: MPO is an enzyme mainly found in neutrophils, and the activity of MPO in tissues is an indicator of neutrophil infiltration, so it is an indicator of inflammatory response and correlates with the level of intestinal damage caused by inflammatory colitis. Therefore, in order to measure the activity of MPO according to the administration of the combined extract of the present invention, an experiment was conducted as shown in Table 3 of Example 5 above.
2.5% dextran sulfate sodium (DSS) diluted in sterile water was administered in drinking water for a total of 5 days, and 5-aminosalicylic acid (5-ASA), which is a therapeutic agent for inflammatory bowel disease, an extract of Isatidis folium alone, an extract of Juglans mandshurica fruits alone, or the combined extract of the present invention was orally administered for a total of 7 days from 2 days prior to the day of administration with DSS. In order to measure the activity of MPO, the Mouse MPO ELISA kit (HK210-02, Hycult biotechnology) was used. […] The homogenized sample was centrifuged at 1500×g for 15 minutes to obtain a supernatant, and then the activity of MPO was measured using the supernatant.

[1] = tested on: inflammatory bowel disease animal model (2.5% DSS); test: Body weight change in DSS-treated mice (Example 1); details: 100 mg/kg oral, 2.5% DSS in drinking water, 7 days; body weight before DSS = 100%; negative control 89.31±2.75%, normal 105.64±0.54%
Description: 6-week-old C57BL/6N male mice were purchased and pre-bred for one week, and then they were randomly divided into a total of 5 groups of 8 mice per group, and an experiment was conducted as shown in Table 1 below. 2.5% dextran sulfate sodium (DSS) diluted in sterile water was administered in drinking water for a total of 8 days, and 5-aminosalicylic acid (5-ASA), which is a therapeutic agent for inflammatory bowel disease, or the combined extract of the present invention was orally administered for a total of 10 days from 2 days prior to the day of administration with DSS. [table] Body weight loss is a representative symptom of inflammatory bowel disease (Scientific Reports volume 10, Article number: 3829 (2020)). The body weight of the mouse was measured once a day at the same time (10 am) using an electronic scale. The rate of change in body weight of each group was obtained by summing the body weight of 8 mice per group and then dividing by 8. The average body weight immediately before the start of administration of 2.5% DSS in drinking water was set as 100%, and the average body weight of each group was calculated every day to measure the rate of change in body weight. Significance was verified by performing a Student's T test for each group between the negative control group to which 2.5% DSS was administered in drinking water and the experimental group.

[2] = tested on: inflammatory bowel disease-induced mouse model (2.5% DSS); test: Disease activity index (DAI) evaluation II, combined vs single extracts (Example 5); details: 100 mg/kg oral, 2.5% DSS for 5 days, 5 days after administration
Description: In order to evaluate whether the combined extract has a synergistic effect compared to that of individual use of an extract of […] folium and an extract of Juglans mandshurica fruits, 6-week-old C57BL/6N male mice were purchased and pre-bred for one week, and then they were randomly divided into a total of 6 groups of 7 mice per group, and an experiment was conducted as shown in Table 3 below. [table] 2.5% dextran sulfate sodium (DSS) diluted in sterile water was administered in drinking water for a total of 5 days, and 5-aminosalicylic acid (5-ASA), which is a therapeutic agent for inflammatory bowel disease, an extract of […] folium alone, an extract of Juglans mandshurica fruits alone, or the combined extract of the present invention was orally administered for a total of 7 days from 2 days prior to the day of administration with DSS. In addition, the disease activity index was measured in the same manner as the method used in Table 2 above, and the results 5 days after administration are shown in FIG. 5.

[3] = tested on: inflammatory bowel disease animal model (2.5% DSS); test: Weight and length of spleen (spleen ratio) in DSS-treated mice (Example 3); details: 100 mg/kg oral, last day of administration
Description: 6-week-old C57BL/6N male mice were purchased and pre-bred for one week, and then they were randomly divided into a total of 5 groups of 8 mice per group, and an experiment was conducted as shown in Table 1 below.
2.5% dextran sulfate sodium (DSS) diluted in sterile water was administered in drinking water for a total of 8 days, and 5-aminosalicylic acid (5-ASA), which is a therapeutic agent for inflammatory bowel disease, or the combined extract of the present invention was orally administered for a total of 10 days from 2 days prior to the day of administration with DSS.
A representative symptom that can occur in relation to inflammatory bowel disease includes splenitis. As such, when the spleen becomes inflamed, the size of the spleen is increased by its nature (Nutrients 2019, 11 (11), 2776), and in fact, it is known that the spleen becomes enlarged in the model of IBD induced after DSS treatment (Biol. Pharm. Bull. 43, 450-457 (2020)). Therefore, in order to evaluate the level of inflammation in the spleen of mice according to the administration of the combined extract of the present invention, the mouse of Example 1 was sacrificed on the last day of each administration, and then the weight and length of the spleen of each group compared to those of the negative control group were measured, and the spleen ratio is shown.

[4] = tested on: inflammatory bowel disease animal model (2.5% DSS); test: Length of large intestine in DSS-treated mice (Example 2); details: 100 mg/kg oral, last day of administration, negative control 5.44±0.12 cm, normal 7.48±0.30 cm
Description: 6-week-old C57BL/6N male mice were purchased and pre-bred for one week, and then they were randomly divided into a total of 5 groups of 8 mice per group, and an experiment was conducted as shown in Table 1 below. 2.5% dextran sulfate sodium (DSS) diluted in sterile water was administered in drinking water for a total of 8 days, and 5-aminosalicylic acid (5-ASA), which is a therapeutic agent for inflammatory bowel disease, or the combined extract of the present invention was orally administered for a total of 10 days from 2 days prior to the day of administration with DSS. It is known that there is a sufficient correlation between the shortened large intestine and histological changes, and the length of the large intestine is commonly used as a morphological parameter of the degree of inflammation. Therefore, in order to evaluate the length of the large intestine of the mouse according to the administration of the combined extract of the present invention, the mouse of Example 1 was sacrificed on the last day of each administration, and then the length of the large intestine was measured, and the average length is shown in FIG. 2.

SMILES: Nc1ccc(O)c(C(=O)O)c1 [5-ASA, 5-aminosalicylic acid]
- decrease of the activity of MPO compared to negative control group (myeloperoxidase (MPO)): 9.6%
- rate of change in body weight [1]: 91.38±2.01%
- disease activity index compared to negative control group [2]: decreased
- weight and length of the spleen compared to negative control group [3]: decreased
- length of the large intestine [4]: 5.28±0.08 cm
